No end group written: not given here.
Test system: PBMCs of healthy adults reactive to the anti-HLA-A*24 antibody
Test: Induction of specific CTLs from PBMCs, method for quantifying cells producing intracellular IFNγ
Format: cell-based, human
Parameters: key to specific CTL induction, cytokine quantification method: ∘: “open circle” indicates that the use of a candidate peptide enabled specific CTLs to be induced; x: “cross” indicates that specific CTLs was unable to be induced
Conditions: for specific CTL induction confirmed by CD8-positive, IFNγ-positive cells versus HIV peptide: donor ID*24-8, FIG. 3a-d; for peptide-specific cytokine production in PBMCs derived from ten people with HLA-A*24 molecule: summary of Table 2
Summary of the method: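 Per culture, 1–3×10^6 HLA-A*24 PBMCs were grown in RPMI1640 with 5% autologous plasma and 10 μg/ml peptide; IL-2 (20–100 U/ml) was added at day 2 and peptide restimulation done at about 2 weeks. Cells were re-exposed to 0.01–0.05 μg/ml peptide with a transport inhibitor for 5–16 h at 37° C. The IFNγ-positive fraction among T cells or MHC-tetramer+ cells was measured by flow cytometry.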

TYFNLGNKF [TYF]
specific CTL induction, cytokine quantification method (donor ID *24-1): x
specific CTL induction, cytokine quantification method (donor ID *24-2): ∘
specific CTL induction, cytokine quantification method (donor ID *24-3): x
specific CTL induction, cytokine quantification method (donor ID *24-5): x
specific CTL induction, cytokine quantification method (donor ID *24-8): ∘
specific CTL induction, cytokine quantification method (donor ID *24-10): x
specific CTL induction, cytokine quantification method (donor ID *24-11): x
specific CTL induction, cytokine quantification method (donor ID *24-12): x
specific CTL induction, cytokine quantification method (donor ID *24-13): x
specific CTL induction, cytokine quantification method (donor ID *24-14): x
specific CTL induction confirmed by CD8-positive, IFNγ-positive cells versus HIV peptide: induced specific CTLs
peptide-specific cytokine production in PBMCs derived from ten people with HLA-A*24 molecule: induce cytokine production in a peptide-specific manner

VYSGSIPYL
specific CTL induction, cytokine quantification method (donor ID *24-1): x
specific CTL induction, cytokine quantification method (donor ID *24-2): ∘
specific CTL induction, cytokine quantification method (donor ID *24-3): x
specific CTL induction, cytokine quantification method (donor ID *24-5): x
specific CTL induction, cytokine quantification method (donor ID *24-8): ∘
specific CTL induction, cytokine quantification method (donor ID *24-10): x
specific CTL induction, cytokine quantification method (donor ID *24-11): x
specific CTL induction, cytokine quantification method (donor ID *24-12): x
specific CTL induction, cytokine quantification method (donor ID *24-13): x
specific CTL induction, cytokine quantification method (donor ID *24-14): x
specific CTL induction confirmed by CD8-positive, IFNγ-positive cells versus HIV peptide: induced specific CTLs
peptide-specific cytokine production in PBMCs derived from ten people with HLA-A*24 molecule: induce cytokine production in a peptide-specific manner

Source: US20090142363A1, “CYTOTOXIC T-CELL EPITOPE PEPTIDE AND USE THEREOF” (priority 2005, published 2009)
